Laboratory results as given in patent US6440432B1, “Skin cosmetic compositions containing dextran or maltodextrin and a weak carboxylic acid” (Unilever Home & Personal Care USA, a division of Conopco, …, priority 1999, dated 2002).
Entries after “also recorded” stand apart in the source; their conditions may differ.

Columns and labels:
[1] = tested on: procollagen I in neonatal human dermal fibroblasts; assay: procollagen I production by fibroblasts (slot blot); assay type: cell-based; conditions: combination with glycolic acid
From the text: Collagen is a predominant skin protein. It is synthesized by fibroblasts in the dermis. The synthesis of collagen decreases with aging or photodamage. Collagen l is first made as a precursor molecule called Pro-collagen l. Increased production of procollagen 1 is a marker of an increased collagen level in response to a test compound application.
Method: Neonatal human dermal fibroblasts were purchased from Clonetics Corp., San Diego, Calif. All materials for cell culture were purchased from Life Technologies, NY. Cells (between passages 5-10) were seeded at a density of approximately 10,000/well in the inner 48 wells of a 96-well plate in DMEM (Dulbecco's Modified Eagle's Medium), high-glucose, supplemented with 2 mM L-glutamine, 10% fetal bovine serum, and antibiotic and antimycotic solutions. Cells were then grown to confluence for 2 days. At confluence, the medium was removed and cells were washed with serum-free DMEM, and each well dosed with 200 μl of a solution of a test compound in serum-free DMEM. Each dosing was replicated in the total of six wells. […]
For the analysis of procollagen I in the solutions, they were diluted in DMEM (approximately 20 μl sample in 200 μl DMEM). […] Percent increase was calculated as a ratio of optical density of cells treated with a test compound over control ×100.

[2] = tested on: transglutaminase-K (Tgase K) in Normal Human keratinocytes; assay: keratinocyte differentiation (transglutaminase absorbance / µg DNA); assay type: cell-based; conditions: combination with lactic acid
From the text: Keratinocytes, the major cell type in the epidermis, undergo a program of differentiation leading to formation of corneocytes which form the stratum corneum and provide a protective barrier against water loss and entry of harmful substances and pathogens. A prominent feature of keratinocyte differentiation is the formation of a highly insoluble, cross-linked envelope (CE) immediately beneath the keratinocyte plasma membrane. The production of keratinocyte CE is catalyzed by the enzyme transglutaminase-K (Tgase K) which cross-links certain precursor proteins in the cell. […] Therefore, agents that increase Tgase-K activity have the potential of providing benefits to the skin.
Method: Normal Human keratinocytes were seeded in 96-well plates at 4000 cells/well and grown in Keratinocyte Growth Medium (KGM) obtained from Clonetics Corp. Cells were treated with test compounds at various concentrations for 48 hours with an intermittent change of medium after 24 hrs. 6 replicate wells were used for each test. At the end of the incubation period, two parameters were measured on the cells—I. DNA and II. […]
I. DNA was measured using a method described by Rago et al Anal. Biochem 191:31-34,1990. […] Readings were then taken on Millipore Fluorescence Miicroplate Reader (ex/em 360/450 nm). Amount of DNA per well (α) was calculated using standards.
II. […] Absorbance was measured at 490nm (b). […]

[3] = tested on: skin; conditions: LAREX publication Mar. 23, 1998; cited from earlier work
[4] = tested on: contralateral nasolabial folds of subjects sensitive to glycolic acid; assay: in-vivo sting test (sting/burn propensity and forced choice); conditions: for Effect on stinging/burning propensity of Base Formula A containing 8% glycolic acid (in words): substance added to the formulation, pH 3.8; for Effect on sting/irritation caused by weak carboxylic acids (in words, summary): summary of Examples 1-6
From the text: (§1) Procedure for in-vivo sting test: This was a randomized, double blind study where each subject evaluated one test formulation and a control formulation or two test formulations on contralateral nasolabial folds. […] A maximum of 20 qualified subjects (minimum of 15) were utilized in each subsequent test. One paired comparison was made on each testing day, with a minimum of 3 days between sting testing throughout the study. Subjects underwent a 15 second Ivory soap wash regime immediately prior to product testing for enhancing sting response. […] Study personnel then applied one test formulation and one control or test formulation simultaneously to the appropriate left/right test site, and gently but thoroughly rubbed in. Subjects compared the stinging potential of the two formulations, over a 7.5 minute period using a self-assessment questionnaire.
(§2) Sting/Burn Propensity: The degree of stinging/burning felt on the left and right inner cheek and crease of the nose was evaluated using the following scale at the times indicated in Tables below:
(§3) 0-no stinging/burning; 1-very slight stinging/burning; 2-slight stinging/burning; 3-moderate stinging/burning; 4-moderately high stinging/burning; 5-high stinging/burning; 6-extreme stinging/burning.
(§4) Determination of Statistical Significance: At each evaluation time point after baseline, the parametric paired t-test (two-tailed) was performed, to compare the extent of attribute change from baseline between each treatment comprising a paired comparison test, with subject acting as a block in these analyses. […] The test can be implemented using the SAS software procedure MEANS with the T and PRT options specified.
(§5) Statistical significance was determined at p≦0.1.

[5] = cited from earlier work
[6] = tested on: photodamaged skin on both forearms; assay: 12-week bilateral comparison use test, clinical assessment of photodamaged skin; assay type: in vivo, human; conditions: summary statement
Description: Procedure: The study was a 12-week bilateral comparison use test of two formulations. […] At Baseline (week 0), week 4, 8 and 12, visual evaluation was conducted. Product assignment was randomized and balanced for left/right usage across the subject pool. Subjects were instructed to use the appropriate product to the left/right arms at home and applied approximately 1 gram twice daily for 12 weeks. A minimum of 15 qualified subjects per paired comparison completed the study. […] 0=none […] 4-6=moderate 7-9=severe The following paired comparisons were made: […] The Wilcoxon signed rank test, Pratt-Lehmann version, was used to statistically assess the magnitude of average change from baseline attributable to treatment with subject acting as a block in this analysis. In addition, to compare the extent of change from baseline between the two treatments within a cell, the nonparametric Wilcoxon signed-rank test, Pratt-Lehmann version, was also used.

[7] = tested on: contralateral nasolabial folds of subjects sensitive to glycolic acid; conditions: in vivo, pH 3.8
From the text: as §1, §2, §3, §4, §5

Compound | Effect on procollagen I levels (in words) [1] | Effect on stinging/burning propensity of Base Formula A containing 8% glycolic acid (in words) [4] | Effect on sting/irritation caused by weak carboxylic acids (in words, summary) [4] | also measured
Arabinogalactan | did not | neither hydrocortisone nor arabinogalactan reduced the sting; also recorded: slightly enhanced the sting | does not have this effect; also recorded: did not reduce the sting caused by weak carboxylic acids | Effect on keratinocyte differentiation (in words) [2]: did not; Increase of exfoliation performance of a skin care lotion containing alpha hydroxy acid [3]: 80%; Irritation of the skin care lotion containing alpha hydroxy acid (in words) [3]: without increased irritation
CC(O)CC(=O)O (stereo not drawn) [beta-hydroxybutyric] |  |  |  | pKa [5]: 4.7
C[C@]12CCC(=O)C=C1CC[C@@H]1[C@@H]2[C@@H](O)C[C@@]2(C)[C@H]1CC[C@]2(O)C(=O)CO [hydrocortisone, Hydrocortisone] |  | neither hydrocortisone nor arabinogalactan reduced the sting | did not reduce the sting caused by weak carboxylic acids | 
Maltodextrin |  |  | decrease irritation | 
Dextran | significant increase in procollagen l levels |  | decrease irritation; also recorded: reduced the sting caused by weak acids | Effect on anti-aging efficacy of hydroxy acids (in words) [6]: enhances the anti-aging efficacy of hydroxy acids; Effect on stinging/burning propensity of Base Formula B containing 8% glycolic acid (in words) [7]: reduced the stinging/burning propensity
